Experimental data from patent US10633407B2, “14-membered ketolides and methods of their preparation and use” (President and Fellows of Harvard College, priority 2014, dated 2020).
Read-outs that look alike come from different tables or passages of the source.

Tests used:
Assay in all cases: CLSI broth dilution MIC determination
Format in all cases: cell-based
[1] = tested on: S. pyogenes ATCC 19615
[2] = tested on: S. pyogenes Macrolide-resistant
[3] = tested on: E. coli ATCC 25922
In short: (§1)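 Compounds are serially diluted in broth per CLSI standard methods to give the MIC; azithromycin and solithromycin act as comparator macrolides in many cases, and resistance genotypes may be inducible or constitutive.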

[4] = tested on: E. coli CTX-M-14
In short: as §1

[5] = tested on: S. aureus USA600, GISA
In short: as §1

[6] = tested on: K. pneumoniae TEM-10
[7] = tested on: S. pneumoniae erm B + tet(M,O) genotype; conditions: Streptococcus pneumoniae
In short: as §1

[8] = tested on: S. pneumoniae erm B + mef A genotype
In short: as §1

[9] = tested on: S. pneumoniae ATCC 49619
In short: as §1

[10] = tested on: S. aureus MRSA: USA300
In short: as §1

[11] = tested on: E. coli TEM-1
In short: as §1

[12] = tested on: H. influenzae ATCC49247
In short: as §1

[13] = tested on: S. aureus MRSA: USA100
In short: as §1

[14] = tested on: S. pneumoniae mef A genotype (second strain so labelled)
In short: as §1

[15] = tested on: S. aureus ATCC 29213
In short: as §1

[16] = tested on: E. coli NDM-1
In short: as §1

[17] = tested on: S. aureus erm A genotype
In short: as §1

[18] = tested on: E. faecalis Vancomycin-resistant
[19] = tested on: K. pneumoniae ATCC 10031
[20] = tested on: A. baumannii chromosomal class C
[21] = tested on: P. aeruginosa MP-8 PAO1:mex (mex-oprM-deletion); conditions: Pseudomonas aeruginosa, PAO1
[22] = tested on: A. baumannii IMP-4
[23] = tested on: P. aeruginosa HPA101-1477
[24] = tested on: K. pneumoniae SHV-12
[25] = tested on: H. influenzae Erythro >4, Azithro 1
Description: MIC data was collected for the novel macrolides that this platform has produced against over 21 unique strains of B. subtilis, E. coli, S. aureus, S. pneumoniae, and H. influenzae, including several multidrug-resistant strains, with a special focus on macrolide resistant mechanisms (vide supra). […] CLSI standard procedures for broth dilution MIC determination were used. […] These genotypes can be constitutive or inducible.

[26] = tested on: E. faecalis ATCC 29212
[27] = tested on: A. baumannii ATCC 19606
[28] = tested on: K. pneumoniae KPC-2
[29] = tested on: P. aeruginosa ATCC 27853
[30] = tested on: A. baumannii imipenem-resistant
[31] = S. pyogenes ATCC 19615, Gram-positive
[32] = S. pyogenes Macrolide-resistant, Gram-positive
[33] = E. coli ATCC 25922, Gram-negative
[34] = Escherichia coli, ATCC25922, E. coli ATCC 25922 (MP-4), read-out: MIC
[35] = Escherichia coli, CTXM14, read-out: MIC
[36] = S. aureus USA600, GISA, Gram-positive
[37] = Staphylococcus aureus, S. aureus USA600, GISA (MP-619 UNT-120), read-out: MIC
[38] = Klebsiella pneumoniae, TEM10, read-out: MIC
[39] = S. pneumoniae ATCC 49619, Gram-positive
[40] = S. aureus MRSA: USA300, Gram-positive
[41] = Staphylococcus aureus, S. aureus MRSA: USA300 (MP-549, msr(a)), read-out: MIC
[42] = Haemophilus influenzae, read-out: MIC
[43] = S. aureus MRSA: USA100, Gram-positive
[44] = Staphylococcus aureus, S. aureus MRSA: USA100 (MP-618 UNT-096), read-out: MIC
[45] = Streptococcus pneumoniae, second strain (MP-627 UNT-039), read-out: MIC
[46] = S. aureus ATCC 29213, Gram-positive
[47] = Escherichia coli, NDM1, read-out: MIC
[48] = S. aureus erm A genotype, Gram-positive
[49] = Staphylococcus aureus, S. aureus erm A genotype (MP-620 UNT-146), read-out: MIC
[50] = E. faecalis Vancomycin-resistant, Gram-positive
[51] = K. pneumoniae ATCC 10031, Gram-negative
[52] = Klebsiella pneumoniae, ATCC10031, K. pneumoniae ATCC 10031 (MP-14), read-out: MIC
[53] = Acinetobacter baumannii, read-out: MIC
[54] = Acinetobacter baumannii, IMP4, read-out: MIC
[55] = Pseudomonas aeruginosa, HPA1011477, read-out: MIC
[56] = Klebsiella pneumoniae, SHV12, read-out: MIC
[57] = H. influenzae Erythro >4, Azithro 1, Gram-negative
[58] = E. faecalis ATCC 29212, Gram-positive
[59] = Enterococcus faecalis, ATCC29212, E. faecalis ATCC 29212 (MP-24), read-out: MIC
[60] = A. baumannii ATCC 19606, Gram-negative
[61] = Acinetobacter baumannii, ATCC19606, A. baumannii ATCC 19606 (MP-15), read-out: MIC
[62] = Klebsiella pneumoniae, KPC2, read-out: MIC
[63] = P. aeruginosa ATCC 27853, Gram-negative
[64] = Pseudomonas aeruginosa, ATCC27853, P. aeruginosa ATCC 27853 (MP-3), read-out: MIC

Measured: MIC

CC[C@H]1OC(=O)[C@@](C)(F)C(=O)[C@H](C)[C@@H](OC2OC(C)CC(N(C)C)C2O)[C@](C)(OC)C[C@@H](C)C(=O)[C@H](C)[C@H]2N(CCCCn3cc(-c4cccc(N)c4)nn3)C(=O)O[C@]12C (stereo partly shown) [Solithro, solithromycin, reference compound]
0.25 µg/mL: [8]; S. pneumoniae erm B + mef A genotype, Gram-positive | [8]; Streptococcus pneumoniae
32 µg/mL: [3]; [33] | [3]; [34] | [11]; E. coli TEM-1, Gram-negative | [11]; Escherichia coli, TEM1 | [18]; [50]
16 µg/mL: [3]; E. coli ATCC 25922 (MP-4)
0.125 µg/mL: [10]; Staphylococcus aureus, S. aureus MRSA: USA300 (MP-549, msr(a)) | [14]; Gram-positive | [14]; Streptococcus pneumoniae, second strain (MP-627 UNT-039) | [15]; [46] | [15]; Staphylococcus aureus, ATCC29213
> 32 µg/mL: [4]; [35] | [4]; Gram-negative | [5]; [36] | [5]; [37] | [6]; Gram-negative | [6]; [38] | [13]; [43] | [13]; [44] | [16]; [47] | [16]; Gram-negative | [17]; [48] | [17]; [49] | [22]; [54] | [22]; Gram-negative | [23]; Gram-negative | [23]; [55] | [24]; Gram-negative | [24]; [56] | [28]; Gram-negative | [28]; [62] | [29]; [63] | [29]; [64]
4 µg/mL: [12]; Gram-negative | [12]; [42] | [19]; K. pneumoniae ATCC 10031 (MP-14) | [30]; [53] | [30]; Gram-negative
8 µg/mL: [19]; [51] | [19]; [52] | [20]; [53] | [20]; Gram-negative | [21] | [27]; [60] | [27]; [61]
0.03 µg/mL: [26]; E. faecalis ATCC 29212 (MP-24)
2 µg/mL: [25]; [57] | [25]; [42]
< 0.0312 µg/mL: [1]; [31] | [7] | [9]; [39] | [26]; [58] | [26]; [59]
0.0625 µg/mL: [2]; [32]
< 0.015 µg/mL: [14]; [45]
1 µg/mL: [10]; [40] | [10]; [41]

CC[C@H]1OC(=O)[C@@](C)(F)C(=O)[C@H](C)[C@@H](O[C@@H]2OC(C)CC(N(C)C)C2O)[C@](C)(OC)C[C@@H](C)C(=O)[C@H](C)[C@H]2N(CC#CCn3cc(-c4cccc(N)c4)nn3)C(=O)O[C@]12C (stereo partly shown) [FSM-100426]
32 µg/mL: [3]; [33] | [3]; [34] | [5]; [36] | [5]; [37] | [20]; [53] | [20]; Gram-negative
8 µg/mL: [18]; [50] | [18]; Enterococcus faecalis, E. faecalis Vancomycin-resistant (UNT-039), read-out: MIC | [19]; [51] | [19]; [52] | [30]; [53] | [30]; Gram-negative
16 µg/mL: [27]; [60] | [27]; [61]
4 µg/mL: [12]; Gram-negative | [12]; [42] | [25]; [57] | [25]; [42]
> 32 µg/mL: [4]; [35] | [4]; Gram-negative | [6]; Gram-negative | [6]; [38] | [11]; E. coli TEM-1, Gram-negative | [11]; Escherichia coli, TEM1 | [13]; [43] | [13]; [44] | [16]; [47] | [16]; Gram-negative | [17]; [48] | [17]; [49] | [22]; [54] | [22]; Gram-negative | [23]; Gram-negative | [23]; [55] | [24]; Gram-negative | [24]; [56] | [28]; Gram-negative | [28]; [62] | [29]; [63] | [29]; [64]
0.0625 µg/mL: [15]; [46] | [15]; Staphylococcus aureus, ATCC29213, S. aureus ATCC 29213 (MP-12), read-out: MIC
0.5 µg/mL: [10]; [40] | [10]; [41]
< 0.0312 µg/mL: [1]; [31] | [1]; Streptococcus pyogenes, ATCC19615, S. pyogenes ATCC 19615 (MP-19), read-out: MIC | [2]; [32] | [2]; Streptococcus pyogenes, S. pyogenes Macrolide-resistant (MP-625 UNT-014), read-out: MIC | [7] | [8]; Streptococcus pneumoniae | [9]; [39] | [9]; Streptococcus pneumoniae, ATCC49619, S. pneumoniae ATCC 49619 (MP-21), read-out: MIC | [14]; Gram-positive | [14]; [45] | [26]; [58] | [26]; [59]
